In patent US10752587B2, “Homobispiperidinyl derivatives as liver X receptor beta agonists, compositions and their use” (Merck Sharp & Dohme Corp., priority 2015, dated 2020):
Where two headings read alike, the source gives them in different places.

Experiments:
[1] = target: T1, glutathione-S-transferase (GST) tagged LXRbeta LBD (ligand binding domain) (Homo sapiens, UniProt P55055); assay: LanthaScreen TR-FRET Liver X Receptor Coactivator Assay, co-activator recruitment to LXRbeta LBD; type: biochemical
T1 construct: purchased Invitrogen pv4658.pps
T1 sequence (P55055 222-460 limits assumed): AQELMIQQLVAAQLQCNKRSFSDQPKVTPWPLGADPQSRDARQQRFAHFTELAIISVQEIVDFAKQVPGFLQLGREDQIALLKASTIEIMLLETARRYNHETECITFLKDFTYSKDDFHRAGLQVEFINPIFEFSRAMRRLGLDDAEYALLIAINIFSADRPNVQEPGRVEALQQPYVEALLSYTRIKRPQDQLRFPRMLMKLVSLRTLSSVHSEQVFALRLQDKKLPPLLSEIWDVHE
Procedure, shortened: (§1)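 Compound-induced coactivator recruitment by the GST-fused ligand binding domain, detected as TR-FRET between Tb-labelled anti-GST antibody and fluorescein-tagged coactivator peptide after room-temperature incubation. IP and Emax expressed versus T0901317 as reference agonist.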

[2] = target: T2, glutathione-S-transferase (GST) tagged LXRalpha LBD (ligand binding domain) (Homo sapiens, UniProt Q13133); assay: LanthaScreen TR-FRET Liver X Receptor Coactivator Assay, co-activator recruitment to LXRalpha LBD; type: biochemical
T2 construct: purchased Invitrogen pv4655
T2 sequence (Q13133 209-447 limits assumed): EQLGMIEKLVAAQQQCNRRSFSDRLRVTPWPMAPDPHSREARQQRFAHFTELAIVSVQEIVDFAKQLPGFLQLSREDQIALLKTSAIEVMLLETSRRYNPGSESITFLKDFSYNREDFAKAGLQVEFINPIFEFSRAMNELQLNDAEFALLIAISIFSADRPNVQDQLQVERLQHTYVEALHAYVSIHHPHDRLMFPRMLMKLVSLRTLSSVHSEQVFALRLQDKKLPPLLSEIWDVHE
Procedure, shortened: as §1

[3] = efficacy at max dose, in relation to reference dual agonist T0901317, read-out: LXR beta Activity @ max dose (%)
[4] = potency (Inflection Point, IP), co-activator recruitment to LXRbeta LBD, in relation to T0901317, read-out: LXR beta IP
[5] = efficacy at max dose, in relation to reference dual agonist T0901317, read-out: LXR alpha Activity @ max dose (%)
[6] = potency (Inflection Point, IP), co-activator recruitment to LXRalpha LBD, in relation to T0901317, read-out: LXR alpha IP
[7] = efficacy at max dose, in relation to reference dual agonist T0901317
[8] = potency (Inflection Point, IP), co-activator recruitment to LXRalpha LBD, in relation to T0901317
[9] = co-activator recruitment to GST-LXRbeta LBD, TR-FRET, read-out: LXR beta IP (Inflection Point, potency)
[10] = efficacy in relation to reference dual agonist T0901317, read-out: LXR beta Activity @ max dose
[11] = co-activator recruitment to GST-LXRalpha LBD, TR-FRET, read-out: LXR alpha IP (Inflection Point, potency)
[12] = efficacy in relation to reference dual agonist T0901317, read-out: LXR alpha Activity @ max dose

Emax [1, 3] | EC50 [1, 4] | Emax [2, 5] | EC50 [2, 6] | LXR alpha IP (nM) [2, 8] | Compound | further results
 | 51 nM |  |  | NO IP | COc1cccc([C@@](O)(C(=O)N2CCC(CC3CCN(c4ccc(C(=O)N(C)C)cc4)CC3)CC2)C(F)(F)F)c1 [Example 2-132, N,N-dimethyl-4-[4-({1-[(2R)-3,3,3-trifluoro-2-hydroxy-2-(3-methoxyphenyl)propanoyl]piperidin-4-yl}methyl)piperidin-1-yl]benzamide] | LXR beta Activity @ max dose (%) [1, 7]: 49%; LXR alpha Activity @ max dose (%) [2, 7]: 7%
36% | 15 nM | 4% |  | NO IP | CCc1cccc([C@@](O)(C(=O)N2CCC(CC3CCN(c4ccc(C(=O)N(C)C)c(Cl)c4)CC3)CC2)C(F)(F)F)c1 [Example 2-113, 2-chloro-4-[4-({1-[(2R)-2-(3-ethyl-phenyl)-3,3,3-trifluoro-2-hydroxy-propanoyl]piperidin-4-yl}methyl)piperidin-1-yl]-N,N-dimethyl-benzamide] | 
100% | 105 nM | 0% |  | NO IP | CCOc1cccc([C@@](O)(C(=O)N2CCC(CC3(C)CCN(c4ccc(C(=O)N(C)C)c(C)n4)CC3)CC2)C(F)(F)F)c1 [Example 7-14, 6-[4-({1-[(2R)-2-(3-ethoxyphenyl)-3,3,3-trifluoro-2-hydroxypropanoyl]piperidin-4-yl}methyl)-4-methyl-piperidin-1-yl]-N,N,2-trimethylpyridine-3-carboxamide] | 
37% | 1 nM | 20% | 32 nM |  | CN(C)C(=O)c1ccc(N2CCC(CC3(C)CCN(C(=O)[C@](O)(c4ccccc4)C(F)(F)F)CC3)CC2)cc1Cl [Example 2-44, 2-chloro-N,N-dimethyl-4-[4-({4-methyl-1-[(2R)-3,3,3-trifluoro-2-hydroxy-2-phenyl-propanoyl]piperidin-4-yl}methyl)piperidin-1-yl]benzamide] | 
60% | 50 nM | 0% |  | NO IP | CN(C)C(=O)c1ccc(N2CCC(CC3CCN(C(=O)C4(c5ccccc5)CCCC4)CC3)CC2)cc1Cl [Example 2-10, 2-chloro-N,N-dimethyl-4-[4-({1-[(1-phenyl-cyclopentyl)carbonyl]piperidin-4-yl}methyl)piperidin-1-yl] benzamide] | 
 | 3 nM |  |  | NO IP | CN(C)C(=O)c1ccc(N2CCC(CC3CCN(C(=O)[C@](O)(c4cc(Cl)cc(Cl)c4)C(F)(F)F)CC3)CC2)nc1Cl [Example 7-104, 2-chloro-6-[4-({1-[(2R)-2-(3,5-dichlorophenyl)-3,3,3-trifluoro-2-hydroxypropanoyl]piperidin-4-yl}methyl)piperidin-1-yl]-N,N-dimethylpyridine-3-carboxamide] | LXR beta Activity @ max dose (%) [1, 7]: 51%; LXR alpha Activity @ max dose (%) [2, 7]: 0%
107% | 293 nM | 39% | 2680 nM |  | CC(C)C(O)(C(=O)N1CCC(CC2CCN(c3ccc(C(=O)N(C)C)c(Cl)n3)CC2)CC1)C(F)(F)F (stereo not drawn) [Example 7-59, 2-chloro-6-[4-({1-[2-hydroxy-3-methyl-2-(trifluoromethyl)butanoyl]piperidin-4-yl}methyl)piperidin-1-yl]-N,N-dimethylpyridine-3-carboxamide] | 

The remaining lines, values behind:

Compound | Emax [1, 3] | EC50 [1, 4] | Emax [2, 5] | EC50 [2, 6] | LXR alpha IP (nM) [2, 8] | further results
CCc1cccc(C(O)(C(=O)N2CCC(CC3CCN(c4ccc(C(=O)N(C)C)c(Cl)c4)CC3)CC2)C(F)(F)F)c1 (stereo not drawn) [Example 2-39, 2-chloro-4-[4-({1-[2-(3-ethylphenyl)-3,3,3-trifluoro-2-hydroxy-propanoyl]piperidin-4-yl}methyl)piperidin-1-yl]-N,N-dimethyl-benzamide] | 30% | 36 nM | 2% | 1780 nM |  | 
COCCN(C)C(=O)c1ccc(N2CCC(OC3CCN(C(=O)[C@](O)(c4ccccc4)C(F)(F)F)CC3)CC2)cc1Cl [Example 4-14, 2-chloro-N-(2-methoxyethyl)-N-methyl-4-[4-({1-[(2R)-3,3,3-trifluoro-2-hydroxy-2-phenylpropanoyl]piperidin-4-yl}oxy)piperidin-1-yl]benzamide] | 88% | 117 nM | 42% | 2170 nM |  | 
COc1cccc(S(=O)(=O)N2CC(CC3CCN(c4ccc(C(=O)N(C)C)c(Cl)c4)CC3)C2)c1 [Example 13-2, 2-chloro-4-[4-({1-[(3-methoxyphenyl)-sulfonyl]azetidin-3-yl}methyl)piperidin-1-yl]-N,N-dimethyl-benzamide] |  |  |  |  |  | EC50 [1, 9]: 96 nM; Emax [1, 10]: 70%; EC50 [2, 11]: 3390 nM; Emax [2, 12]: 26%
CNC(=O)c1ccc(N2CCC(CC3CCN(C(=O)C(O)(C(C)C)C(F)(F)F)CC3)CC2)nc1Cl (stereo not drawn) [Example 7-143, 2-chloro-6-[4-({1-[2-hydroxy-3-methyl-2-(trifluoromethyl)butanoyl]piperidin-4-yl}methyl)piperidin-1-yl]-N-methylpyridine-3-carboxamide] | 104% | 327 nM | 58% | 1310 nM |  | 
O=C(c1ccc(N2CCC(CC3CCN(C(=O)[C@](O)(c4cc(Cl)cc(Cl)c4)C(F)(F)F)CC3)CC2)cc1Cl)N1CCC[C@@H]1CO [Example 4-23, (2R)-3-(4-{[1-(3-chloro-4-{[(2R)-2-(hydroxymethyl)pyrrolidin-1-yl]carbonyl}phenyl)piperidin-4-yl]methyl}piperidin-1-yl)-2-(3,5-dichlorophenyl)-1,1,1-trifluoro-3-oxopropan-2-ol] | 30% | 51 nM | 4% |  | NO IP | 
COc1cccc(S(=O)(=O)N2CC(CC3CCN(c4ccc(C(=O)N(C)C)c(Cl)n4)CC3)C2)c1 [Example 14-2, 2-chloro-6-[4-({1-[(3-methoxyphenyl)-sulfonyl]azetidin-3-yl}methyl)piperidin-1-yl}-N,N-dimethyl-pyridine-3-carboxamide] |  |  |  |  |  | EC50 [1, 9]: 50 nM; Emax [1, 10]: 93%; EC50 [2, 11]: 10300 nM; Emax [2, 12]: 45%
CN(C)C(=O)c1ccc(N2CCC(CC3CCN(C(=O)C(O)(c4cc(F)cc(F)c4)C(F)(F)F)CC3)CC2)cc1 (stereo not drawn) [Example 2-126, 4-[4-({1-[2-(3,5-difluoro-phenyl)-3,3,3-trifluoro-2-hydroxy-propanoyl]piperidin-4-yl}methyl)piperidin-1-yl]-N,N-dimethyl-benzamide] | 118% | 38 nM | 33% | 126 nM |  | 
CN(C)C(=O)c1ccc(N2CCC(CC3CCN(C(=O)[C@](O)(c4cccc(OCC(F)(F)F)c4)C(F)(F)F)CC3)CC2)cc1Cl [Example 2-97, 2-chloro-N,N-dimethyl-4-{4-[(1-{(2R)-3,3,3-trifluoro-2-hydroxy-2-[3-(2,2,2-trifluoroethoxy)phenyl]propanoyl}piperidin-4-yl)methyl]piperidin-1-yl}benzamide] | 20% | 40 nM | 0% |  | NO IP | 
CC(C)c1cccc([C@@](O)(C(=O)N2CCC(CC3CCN(c4ccc(C(N)=O)c(Cl)c4)CC3)CC2)C(F)(F)F)c1 [Example 12-10, 2-chloro-4-{4-[(1-{(2R)-3,3,3-trifluoro-2-hydroxy-2-[3-(1-methylethyl)phenyl]-propanoyl}piperidin-4-yl)methyl]piperidin-1-yl}benzamide] |  |  |  |  |  | EC50 [1, 9]: 8 nM; Emax [1, 10]: 51%; EC50 [2, 11]: 85 nM; Emax [2, 12]: 26%
CNC(=O)c1ccc(N2CCC(CC3CCN(C(=O)C(O)(c4cc(F)cc(F)c4)C(F)(F)F)CC3)CC2)nc1Cl (stereo not drawn) [Example 7-133, 2-chloro-6-[4-({1-[2-(3,5-difluorophenyl)-3,3,3-trifluoro-2-hydroxypropanoyl]piperidin-4-yl}methyl)piperidin-1-yl]-N-methylpyridine-3-carboxamide] | 123% | 6 nM | 66% | 83 nM |  | 
CN(C)C(=O)c1ccc(N2CCC(CC3CCN(C(=O)C(O)(c4ccccc4)C4CCCCC4)CC3)CC2)nc1Cl (stereo not drawn) [Example 7-100, 2-chloro-6-[4-({1-[cyclohexyl(hydroxy)phenylacetyl]piperidin-4-yl}methyl)piperidin-1-yl]-N,N-dimethylpyridine-3-carboxamide] |  |  |  |  | NO IP | EC50 ([1]; LXR beta IP (nM), potency (Inflection Point, IP), co-activator recruitment to LXRbeta LBD, in relation to T0901317): 200 nM; Emax ([1]; read-out: LXR beta Activity @ max dose (%)): 37%; Emax ([2]; read-out: LXR alpha Activity @ max dose (%)): 4%
